Results published in ChEMBL document CHEMBL4651402, “Screening of ~5500 FDA-approved drugs and clinical candidates for anti-SARS-CoV-2 activity” (2021).

Tested on: SARS-CoV-2
Assay: microbe, parasite or virus in culture
Conditions: Severe acute respiratory syndrome coronavirus 2, Vero C1008, 48 h

SMILES	IC50 [µM]	IC50 (read-out: pIC50 (converted)) [µM]
COc1ccc(-c2c(C#N)c(C(=O)NN3CCCCC3)nn2-c2ccc(Cl)cc2Cl)cc1 [JHU-75528]	> 20	> 20
CC(=O)N[C@@H](CC(=O)N[C@H](CCC(=O)O)C(=O)O)C(=O)O	> 20	> 20
CC(=O)OC[C@@]1(O)C[C@@]23CC[C@@H]4c5ccoc5CC[C@@]4(C)[C@@H]2CC[C@H]1C3	> 20	> 20
NC(COP(=O)(O)O)C(=O)O (configuration not stated)	> 20	> 20
O=C1[C@H]2CCCC[C@H]2C(=O)N1CCCCN1CCN(c2nsc3ccccc23)CC1 [PEROSPIRONE]	> 20	> 20
O=C(CN1CCNCC1)NC1CCCCC1 [ESAPRAZOLE]	> 20	> 20
COc1ccc2cc([C@@H](C)C(=O)O)ccc2c1	> 20	> 20
Cc1cc(C2CCCCC2)n(O)c(=O)c1 [CICLOPIROX]	> 20	> 20
CN1[C@@H]2CC[C@H]1C[C@@H](OC(=O)C(CO)c1ccccc1)C2 (some centres not stated) [ATROPINE]	> 20	> 20
CC12C=CC(=O)C=C1CCC1C2C(O)CC2(C)C1CCC2(O)C(=O)COC(=O)CCCc1ccc(N(CCCl)CCCl)cc1 (configuration not stated)	> 20	> 20
CNC(=O)[C@H]1O[C@@H](n2cnc3c(NCc4cccc(I)c4)ncnc32)[C@@H](O)[C@H]1O	> 20	> 20
CC(=O)O[C@H]1C[C@@H]2CC[C@@H]3[C@H](CC[C@@]4(C)[C@H]3C[C@H]([N+]3(C)CCCCC3)[C@@H]4OC(C)=O)[C@@]2(C)C[C@@H]1[N+]1(C)CCCCC1 [PANCURONIUM]	> 20	> 20
CC[C@@H](C(N)=O)N1CCCC1=O	> 20	> 20
C[C@@H]1C[C@H]2[C@@H]3CCC4=CC(=O)C=C[C@]4(C)[C@@]3(F)[C@@H](O)C[C@]2(C)[C@H]1C(=O)CO [DESOXIMETASONE]	> 20	> 20
Cc1noc(NS(=O)(=O)c2ccc(N)cc2)c1C [SULFISOXAZOLE]	> 20	> 20
C=C1CC[C@H](O)C/C1=C/C=C1\CCCC2(C)C1CCC2C(C)/C=C/C(C)C(C)C (some centres not stated)	> 20	> 20
Nc1nc(N)c2nc(-c3cccc(O)c3)c(-c3cccc(O)c3)nc2n1 [TG100-115]	> 20	> 20
CCN(CC)CCOc1ccc2nc(N(C)C)sc2c1 [DIAMTHAZOLE]	> 20	> 20
CCc1oc2ccccc2c1C(=O)c1cc(Br)c(O)c(Br)c1 [BENZBROMARONE]	> 20	> 20
CNn1cc(C(=O)O)c(=O)c2cc(F)c(N3CCN(C)CC3)cc21 [AMIFLOXACIN]	> 20	> 20
CC(=O)OC(CC(=O)O)C[N+](C)(C)C (configuration not stated)	> 20	> 20

SMILES	IC50 [µM]	IC50 (read-out: pIC50 (converted)) [µM]
NC(=O)c1ccc[n+]([C@@H]2O[C@H](CO)[C@@H](O)[C@H]2O)c1 [NICOTINAMIDE RIBOSIDE]	> 20	> 20
COc1cc(-c2ccc(=O)[nH]n2)ccc1OC(F)F [ZARDAVERINE]	> 20	> 20
COc1c(C)c2c(c(O)c1C/C=C(\C)CCC(=O)OCCN1CCOCC1)C(=O)OC2 [MYCOPHENOLATE MOFETIL]	> 20	> 20
CC(=O)Nc1ccc(C(=O)Nc2ccccc2N)cc1 [TACEDINALINE]	> 20	> 20
COP(=O)(OC)OC(c1ccc(Cl)cc1)P(=O)(OC)OC (configuration not stated) [MIFOBATE]	> 20	> 20
CCS(=O)(=O)N1CCN(c2ccc(Nc3ncc(C(N)=O)c(NC4CC4)n3)cc2)CC1 [CERDULATINIB]	> 20	> 20
CC(C)(C)NCC(O)COc1cccc2c1CCC(=O)N2 (configuration not stated) [CARTEOLOL]	> 20	> 20
CCN1CC(CCN2CCOCC2)C(c2ccccc2)(c2ccccc2)C1=O (configuration not stated) [DOXAPRAM]	> 20	> 20
C1CCc2nnnn2CC1 [PENTYLENETETRAZOL]	> 20	> 20
NCC1CCC(C(=O)Oc2ccc(CCC(=O)O)cc2)CC1 (configuration not stated)	> 20	> 20
CC(C)=CC1C(CO)C1(C)C (configuration not stated) [CHRYSANTHEMYL ALCOHOL]	> 20	> 20
NC(=O)c1cnc(N[C@@H]2CCCC[C@@H]2N)nc1Nc1cccc(-n2nccn2)c1	> 20	> 20
CC(=O)OCC(=O)[C@@]1(O)[C@H](C)CC2C3CCC4=CC(=O)C=CC4(C)[C@@]3(F)C(O)CC21C (some centres not stated)	> 20	> 20
CO[C@H]1/C=C/O[C@@]2(C)Oc3c(C)c(O)c4c(c3C2=O)C2=NC3(CCN(CC(C)C)CC3)NC2=C(NC(=O)/C(C)=C\C=C\[C@H](C)[C@H](O)[C@@H](C)[C@@H](O)[C@@H](C)[C@H](OC(C)=O)[C@@H]1C)C4=O [RIFABUTIN]	> 20	> 20
CCOc1ccc(/C=C2\NCCc3cc(OCC)c(OCC)cc32)cc1OCC [DROTAVERINE]	> 20	> 20
Cc1cc2c(F)c(Oc3ncnn4cc(OC[C@@H](C)O)c(C)c34)ccc2[nH]1 [BRIVANIB]	> 20	> 20
Nc1ccccc1S(N)(=O)=O	> 20	> 20
COc1c(C)c2c(c(O)c1C/C=C(\C)CCC(=O)O)C(=O)OC2 [MYCOPHENOLIC ACID]	> 20	> 20
CN1[C@@H]2CC[C@H]1CC(NC(=O)n1c(=O)[nH]c3ccccc31)C2 (some centres not stated)	> 20	> 20
CCN1CCN(c2ccc(Nc3cc(N(C)C(=O)Nc4c(Cl)c(OC)cc(OC)c4Cl)ncn3)cc2)CC1 [INFIGRATINIB]	> 20	> 20
Nc1ccn([C@H]2CC[C@@H](CO)O2)c(=O)n1 [ZALCITABINE]	> 20	> 20

SMILES	IC50 [µM]	IC50 (read-out: pIC50 (converted)) [µM]
CC(=O)OC1CCC2(C)C(=CCC3C2CCC2(C)C(O)CCC32)C1 (configuration not stated)	> 20	> 20
CCCCNc1ccc(C(=O)OCCOCCOCCOCCOCCOCCOCCOCCOCCOC)cc1 [BENZONATATE]	> 20	> 20
NS(=O)(=O)c1cc2c(cc1Cl)NCNS2(=O)=O [HYDROCHLOROTHIAZIDE]	> 20	> 20
Cn1cc(C2=C(c3cn(C4CCN(Cc5ccccn5)CC4)c4ccccc34)C(=O)NC2=O)c2ccccc21 [ENZASTAURIN]	> 20	> 20
C[C@@H]1[C@H](O)[C@@H](C)\C=C/C=C\C=C/C=C\C=C/C=C\C=C/[C@H](O[C@@H]2O[C@H](C)[C@@H](O)[C@H](N)[C@@H]2O)C[C@@H]2O[C@](O)(C[C@@H](O)C[C@@H](O)[C@H](O)CC[C@@H](O)C[C@@H](O)CC(=O)O[C@H]1C)C[C@H](O)[C@H]2C(=O)O	> 20	> 20
C[C@]12O[C@H](C[C@]1(O)CO)n1c3ccccc3c3c4c(c5c6ccccc6n2c5c31)CNC4=O [LESTAURTINIB]	> 20	> 20
COc1ccnc(C[S+]([O-])c2nc3cc(-n4cccc4)ccc3[nH]2)c1C (configuration not stated) [ILAPRAZOLE]	> 20	> 20
CNCc1ccc(-c2[nH]c3cc(F)cc4c3c2CCNC4=O)cc1 [RUCAPARIB]	> 20	> 20
C[C@H](NC(=O)C(C)(C)Oc1ccc(C(F)(F)F)cn1)[C@@H](Cc1ccc(Cl)cc1)c1cccc(C#N)c1 [TARANABANT]	> 20	> 20
CCCOc1cc(N)ccc1C(=O)OCCN(CC)CC [PROPOXYCAINE]	> 20	> 20
CCC(c1ccccc1)c1c(O)c2ccccc2oc1=O (configuration not stated) [PHENPROCOUMON]	> 20	> 20
COC(=O)/C(=C1/OC(=O)C(c2ccccc2)=C1O)c1ccccc1 [VULPINIC ACID]	> 20	> 20
O=C(O)[C@H]1C[C@H]([C@H]2CCCCN2)CN2CCCC[C@H]12	> 20	> 20
O=C(OCc1ccccc1)c1ccc(O)cc1	> 20	> 20
CN1CCN(CC(=O)N2c3ccccc3C(=O)Nc3cccnc32)CC1 [PIRENZEPINE]	> 20	> 20
CC1(C)SC2C(NC(=O)C(NC(=O)N3CCNC3=O)c3ccccc3)C(=O)N2C1C(=O)O (configuration not stated)	> 20	> 20
NC(=O)CC[C@H](NC(=O)Cc1ccccc1)C(=O)O	> 20	> 20
CC(C=NNC(=N)N)=NNC(=N)N	> 20	> 20
CCc1cccc2cc(C(O)CNC(C)(C)C)oc12 (configuration not stated) [BUFURALOL]	> 20	> 20
